Results reported in patent US20030109549A1 (published 2003).
Where a name gives a salt, the structure may show the parent alone.

| melting point | Compound |
| --- | --- |
| 139 to 143 °C | c1ccc(CN2CCN(c3nc4ccccc4n3C3CCN(C4(c5ccccc5)CCCCCC4)CC3)CC2)cc1 (as salt: HCl) |
| 173 to 177 °C | CNC(C)Nc1nc2ccccc2n1C1CCN(C2(c3ccccc3)CCCCCC2)CC1 (stereo not shown) (as salt: HCl) |
| 168 to 172 °C | O=C1CCN(c2nc3ccccc3n2C2CCN(C3(c4ccccc4)CCCCCC3)CC2)CC1 (as salt: HCl) |
| 172 to 176 °C | c1ccc(C2(N3CCC(n4c(N5CCOCC5)nc5ccccc54)CC3)CCCCCC2)cc1 (as salt: HCl) |
| 231 to 235 °C | c1ccc(C2(N3CCC(n4c(NC5CCNCC5)nc5ccccc54)CC3)CCCCCC2)cc1 (as salt: HCl) |
| 228 to 232 °C | NCCNc1nc2ccccc2n1C1CCN(C2(c3ccccc3)CCCCCC2)CC1 (as salt: HCl) |
| 178 to 181 °C | c1ccc(C2(N3CCC(n4c(N5CCCC5)nc5ccccc54)CC3)CCCCCC2)cc1 (as salt: HCl) |
| 155 to 158 °C | CS(=O)(=O)c1nc2ccccc2n1C1CCN(C2(c3ccccc3)CCCCCC2)CC1 (as salt: HCl) |
| 159 to 163 °C | c1ccc(C2(N3CCC(n4c(N5CCNCC5)nc5ccccc54)CC3)CCCCCC2)cc1 (as salt: HCl) |
| 215 to 218 °C | N=C(N)NCCNc1nc2ccccc2n1C1CCN(C2(c3ccccc3)CCCCCC2)CC1 (as salt: salt) |
| 208 to 212 °C | OC1CCN(c2nc3ccccc3n2C2CCN(C3(c4ccccc4)CCCCCC3)CC2)CC1 (as salt: HCl) |
| 114 to 118 °C | c1ccc(C2(N3CCC(n4c(OC5CCNCC5)nc5ccccc54)CC3)CCCCCC2)cc1 (as salt: HCl) |
| 156 to 159 °C | CCCCCNc1nc2ccccc2n1C1CCN(C2(c3ccccc3)CCCCCC2)CC1 (as salt: HCl) |
| 153 to 156 °C | Clc1nc2ccccc2n1C1CCN(C2(c3ccccc3)CCCCCC2)CC1 (as salt: HCl) |
| 201 to 204 °C | ON=C1CCN(c2nc3ccccc3n2C2CCN(C3(c4ccccc4)CCCCCC3)CC2)CC1 (as salt: fumaric acid salt) |
| 188 to 192 °C | c1ccc(N2CCN(c3nc4ccccc4n3C3CCN(C4(c5ccccc5)CCCCCC4)CC3)CC2)cc1 (as salt: HCl) |
| 188 to 192 °C | CN(C)CCNc1nc2ccccc2n1C1CCN(C2(c3ccccc3)CCCCCC2)CC1 (as salt: HCl) |
| 180 to 184 °C | NCCOc1nc2ccccc2n1C1CCN(C2(c3ccccc3)CCCCCC2)CC1 (as salt: HCl) |
| 168 to 171 °C | CSc1nc2ccccc2n1C1CCN(C2(c3ccccc3)CCCCCC2)CC1 (as salt: HCl) |
| 177 to 180 °C | c1ccc(C2(N3CCC(n4c(N5CCCCC5)nc5ccccc54)CC3)CCCCCC2)cc1 (as salt: HCl) |
| 217 to 221 °C | NCC(=O)Nc1nc2ccccc2n1C1CCN(C2(c3ccccc3)CCCCCCC2)CC1 (as salt: HCl) |
| 225 to 228 °C | NC1CCN(c2nc3ccccc3n2C2CCN(C3(c4ccccc4)CCCCCC3)CC2)CC1 (as salt: HCl) |
